Like-named read-outs stand apart in the source and are kept apart here.
Columns and labels:
[1] = tested on: spleen lymphocytes of BDF1 mice; details: 7 days
Description: The purpose of this assay is to challenge lymphocytes in microcultures with one or more polyclonal mitogens at concentrations that will induce mitogenesis within 72 hours of stimulation.
In the mouse model, spleens are removed from different strains of mice and the spleen cells are teased free and suspended in RPMI-1640 tissue culture medium at a concentration of usually 1×10^7 ml. These cells are dispensed at a concentration of 5.0×10^5 cells per microculture well in a 96 well flat bottom 96 well tissue culture plate. All testing of the compounds of this invention or mitogens are done in replicates of 10. The cells are then treated with PHA, Con-A, specific antigens, or buffer only. If in vitro testing is done, varying concentrations of the compounds of this invention or buffer only are added to the cells as well. After treatment with the mitogens and/or compounds of this invention, the cells are incubated for 72 hours. The response of these cells to mitogens and/or the compounds of this invention is assessed using ^14 C-thymidine labeling on the fourth day at a concentration of 0.01 μCi/well. The labeled cells are harvested using a lymphocyte harvestor and placed onto fibrous paper discs. A scintillation cocktail is added to vials contaning the discs and the results are obtained using a LKB-liquid scintillation counter (Model 1216/Rackbeta II). The data is expressed as a ratio of the cpm of the mitogen stimulated group to the control (non-mitogen) treated group=lymphocyte stimulation index (LSI).
The lymphocyte stimulation assay may be performed directly on spleen cells obtained from various strains of mice not treated with the compounds of this invention or on lymphocytes obtained from […]. […] Alternatively, the mice may be treated in vivo with the compounds of this invention by intraperitoneal multi-dose schedules, followed by sacrifice and harvesting spleen lymphocytes. These cells are then tested for their response to polyclonal mitogens or specific antigens used to immunize the mice. In this sytem however, no additional compound is added to the in vitro lymphocyte stimulation assay system.
Two strains of mice, C57BL/6 and BDF1 are treated for seven days with i.p. administration of either 25, 50, 100, 200, or 400 mg/kg of Cpd. 1 or just buffer. This is followed on the eighth day by a lymphocyte stimulation assay.

[2] = tested on: spleen lymphocytes of BSA-immunized C57BL/6 mice
From the text: The effect of the compounds of this invention on the immune response to specific antigens involves immunization of mice with specific anitgens such as bovine serum albumin (BSA) or keyhole limpet hemocyanin (KLH). Following immunization, it is possible to assess the cell-mediated or humoral (antibody) immune response to these antigens by various methods:
(1) Lymphocyte stimulation assays can be performed using varying concentrations of the specific antigens as mitogens in the lymphocyte stimulation microculture system described above. The only difference is that the incubation period is extended to five days instead of three as for the polyclonal mitogens.
Mice of the C57BL/6 strain are given i.p. injections of either 50, 100, 200 or 400 mg/kg of Cpd. 1 or buffer for twelve days (days 1-12). An antigen, bovine serum albumin (BSA), is administered intraperitoneally with Freund's Complete Adjuvant (FCA) on days 1, 7 and 14. Blood samples are taken for assay of the antibody response on days 0, 5, 13, and 19.

[3] = tested on: L-1210 leukemia; assay: Anti-cancer study, L-1210 leukemia in BDF1 mice; type: in vivo, mouse; details: seven days
From the text: Mice of the BDF1 strain are given an i.p. inoculation of 10^6 L-1210 leukemia cells on day 0. Twenty-four hours later, groups of 7 mice each are started on a […] treatment regimen of various doses of the compounds of this invention. The experiment is continued according to the guidelines provided under the National Cancer Institute protocol for screening new anti-cancer agents and T/C ratios (median or mean survival time of treated groups over median or mean survival time of controls) are calculated. A T/C value ≥1.25 (or 125%) is considered significant anticancer activity.
Mice of the BDF1 strain, inoculated with L-1210 leukemia cells, are treated for seven days with either 25, 50, 100, 200 or 400 mg/kg of Cpd. 1 or just buffer. The National Cancer Institute protocol for screening new anti-cancer agents is followed and T/C ratios are calculated.
Mice of the BDF1 strain, inoculated with L-1210 leukemia cells, are treated for seven days with either 100 mg/kg of Cpd. 1, 20 mg/kg of 5-fluorouracil (5-FU), a known anti-cancer agent, or just buffer. The National Cancer Institute protocol for screening new anti-cancer agents is followed and T/C ratios are calculated.

Cc1ccc(C2(O)C(=O)OC3C(O)COC32O)o1.Cc1ccc(C2(O)C(=O)OC3C(O)COC32O)o1.O=C1CCC(=O)O1 (stereo not drawn) [Cpd. 1]
Con-A response ([1]; 400 mg/kg i.p.): slight suppression of the Con-A response
PHA response ([1]; 400 mg/kg i.p.): strong suppression of the PHA response
T-lymphocyte proliferation, PHA ([1]; 50 and 100 mg/kg i.p.): stimulation of T-lymphocyte proliferation
Con-A response ([1]; between 50 and 100 mg/kg i.p.): significantly increased
Lymphocyte Stimulation Index ([2]; 50 mg/kg i.p., day 13, BSA 0 μg/well): 16.5
Lymphocyte Stimulation Index ([2]; 50 mg/kg i.p., day 13, BSA 0.01 μg/well): 19.9
Lymphocyte Stimulation Index ([2]; 50 mg/kg i.p., day 13, BSA 0.1 μg/well): 23.1
Lymphocyte Stimulation Index ([2]; 50 mg/kg i.p., day 13, BSA 0.5 μg/well): 22.9
Lymphocyte Stimulation Index ([2]; 50 mg/kg i.p., day 13, BSA 1 μg/well): 18.2
Lymphocyte Stimulation Index ([2]; 50 mg/kg i.p., day 19, BSA 0 μg/well): .26
Lymphocyte Stimulation Index ([2]; 50 mg/kg i.p., day 19, BSA 0.01 μg/well): 2.33
Lymphocyte Stimulation Index ([2]; 50 mg/kg i.p., day 19, BSA 0.1 μg/well): 2.27
Lymphocyte Stimulation Index ([2]; 50 mg/kg i.p., day 19, BSA 0.5 μg/well): 2.37
Lymphocyte Stimulation Index ([2]; 50 mg/kg i.p., day 19, BSA 1.0 μg/well): 2.63
DNA synthesis compared to controls ([2]; 50 mg/kg, day 13): significant stimulation of DNA synthesis
DNA synthesis effect ([2]; 50 mg/kg, day 19): waned
Lymphocyte Stimulation Index ([2]; 100 mg/kg i.p., day 13, BSA 0 μg/well): 3.22
Lymphocyte Stimulation Index ([2]; 100 mg/kg i.p., day 13, BSA 0.01 μg/well): 9.8
Lymphocyte Stimulation Index ([2]; 100 mg/kg i.p., day 13, BSA 0.1 μg/well): 11.9
Lymphocyte Stimulation Index ([2]; 100 mg/kg i.p., day 13, BSA 0.5 μg/well): 12.3
Lymphocyte Stimulation Index ([2]; 100 mg/kg i.p., day 13, BSA 1 μg/well): 10.2
Lymphocyte Stimulation Index ([2]; 100 mg/kg i.p., day 19, BSA 0 μg/well): 4.1
Lymphocyte Stimulation Index ([2]; 100 mg/kg i.p., day 19, BSA 0.01 μg/well): 3.79
Lymphocyte Stimulation Index ([2]; 100 mg/kg i.p., day 19, BSA 0.1 μg/well): 2.68
Lymphocyte Stimulation Index ([2]; 100 mg/kg i.p., day 19, BSA 0.5 μg/well): 2.03
Lymphocyte Stimulation Index ([2]; 100 mg/kg i.p., day 19, BSA 1.0 μg/well): .26
Lymphocyte Stimulation Index ([2]; 200 mg/kg i.p., day 13, BSA 0 μg/well): 10.6
Lymphocyte Stimulation Index ([2]; 200 mg/kg i.p., day 13, BSA 0.01 μg/well): 14.1
Lymphocyte Stimulation Index ([2]; 200 mg/kg i.p., day 13, BSA 0.1 μg/well): 15.8
Lymphocyte Stimulation Index ([2]; 200 mg/kg i.p., day 13, BSA 0.5 μg/well): 13.8
Lymphocyte Stimulation Index ([2]; 200 mg/kg i.p., day 13, BSA 1 μg/well): 14.0
Lymphocyte Stimulation Index ([2]; 200 mg/kg i.p., day 19, BSA 0 μg/well): 0.42
Lymphocyte Stimulation Index ([2]; 200 mg/kg i.p., day 19, BSA 0.01 μg/well): 2.94
Lymphocyte Stimulation Index ([2]; 200 mg/kg i.p., day 19, BSA 0.1 μg/well): 2.82
Lymphocyte Stimulation Index ([2]; 200 mg/kg i.p., day 19, BSA 0.5 μg/well): 2.56
Lymphocyte Stimulation Index ([2]; 200 mg/kg i.p., day 19, BSA 1.0 μg/well): 2.12
Lymphocyte Stimulation Index ([2]; 400 mg/kg i.p., day 13, BSA 0 μg/well): 10.9
Lymphocyte Stimulation Index ([2]; 400 mg/kg i.p., day 13, BSA 0.01 μg/well): 13.7
Lymphocyte Stimulation Index ([2]; 400 mg/kg i.p., day 13, BSA 0.1 μg/well): 12.8
Lymphocyte Stimulation Index ([2]; 400 mg/kg i.p., day 13, BSA 0.5 μg/well): 12.3
Lymphocyte Stimulation Index ([2]; 400 mg/kg i.p., day 13, BSA 1 μg/well): 13.8
Lymphocyte Stimulation Index ([2]; 400 mg/kg i.p., day 19, BSA 0 μg/well): 5.0
Lymphocyte Stimulation Index ([2]; 400 mg/kg i.p., day 19, BSA 0.01 μg/well): 3.26
Lymphocyte Stimulation Index ([2]; 400 mg/kg i.p., day 19, BSA 0.1 μg/well): 2.89
Lymphocyte Stimulation Index ([2]; 400 mg/kg i.p., day 19, BSA 0.5 μg/well): 1.94
Lymphocyte Stimulation Index ([2]; 400 mg/kg i.p., day 19, BSA 1.0 μg/well): 1.04
Median Survival Time ([3]; 25 mg/kg): 20 days
Median Survival Time ([3]; 50 mg/kg): 21 days
Median Survival Time ([3]; 100 mg/kg): 30 days
Median Survival Time ([3]; 200 mg/kg): 30 days
Median Survival Time ([3]; 400 mg/kg): 25 days

Source: US4620014A, “2-furylbutyrolactones and methods for using same” (priority 1983, dated 1986)
